Legend:
[1] = molecular target: EZH2 Y646N (PRC2/EZH2^Y646N) (Homo sapiens, UniProt Q15910, Y641N); assay type: biochemical
[2] = molecular target: EZH2 (PRC2) (Homo sapiens, UniProt Q15910); assay type: biochemical
EZH2 (PRC2), sequence (Q15910 whole entry): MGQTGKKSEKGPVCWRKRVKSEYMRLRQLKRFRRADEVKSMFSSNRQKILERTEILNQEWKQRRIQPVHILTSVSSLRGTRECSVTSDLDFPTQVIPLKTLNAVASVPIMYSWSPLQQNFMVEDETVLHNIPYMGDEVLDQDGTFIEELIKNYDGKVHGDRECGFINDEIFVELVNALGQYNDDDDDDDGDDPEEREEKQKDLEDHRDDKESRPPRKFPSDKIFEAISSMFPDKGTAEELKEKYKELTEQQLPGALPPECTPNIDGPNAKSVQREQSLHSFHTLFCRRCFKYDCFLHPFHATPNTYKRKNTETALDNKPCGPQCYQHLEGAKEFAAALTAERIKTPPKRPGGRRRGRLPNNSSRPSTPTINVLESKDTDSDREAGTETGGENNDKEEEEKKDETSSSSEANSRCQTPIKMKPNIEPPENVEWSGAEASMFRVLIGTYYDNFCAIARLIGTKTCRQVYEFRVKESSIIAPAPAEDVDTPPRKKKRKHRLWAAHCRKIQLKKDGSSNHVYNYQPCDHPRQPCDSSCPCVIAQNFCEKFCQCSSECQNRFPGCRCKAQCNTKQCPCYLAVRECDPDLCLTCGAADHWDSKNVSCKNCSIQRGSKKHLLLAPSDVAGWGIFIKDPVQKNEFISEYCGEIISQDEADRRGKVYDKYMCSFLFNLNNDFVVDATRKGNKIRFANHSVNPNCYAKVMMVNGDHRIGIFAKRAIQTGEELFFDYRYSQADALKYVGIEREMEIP
EZH2 (PRC2), sequence (O75530 2-441 partner): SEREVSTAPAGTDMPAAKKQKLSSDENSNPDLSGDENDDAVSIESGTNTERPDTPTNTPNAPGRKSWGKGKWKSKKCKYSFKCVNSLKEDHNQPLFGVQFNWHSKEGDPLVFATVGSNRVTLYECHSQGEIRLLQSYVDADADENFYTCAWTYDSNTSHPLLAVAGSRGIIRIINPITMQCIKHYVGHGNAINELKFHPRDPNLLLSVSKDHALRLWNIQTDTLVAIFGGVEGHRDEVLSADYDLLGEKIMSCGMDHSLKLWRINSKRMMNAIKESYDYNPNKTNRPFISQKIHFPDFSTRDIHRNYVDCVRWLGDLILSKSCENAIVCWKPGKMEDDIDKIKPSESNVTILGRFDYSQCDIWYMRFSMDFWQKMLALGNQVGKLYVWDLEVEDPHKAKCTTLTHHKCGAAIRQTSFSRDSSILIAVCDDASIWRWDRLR
EZH2 (PRC2), sequence (Q15022 whole entry partner): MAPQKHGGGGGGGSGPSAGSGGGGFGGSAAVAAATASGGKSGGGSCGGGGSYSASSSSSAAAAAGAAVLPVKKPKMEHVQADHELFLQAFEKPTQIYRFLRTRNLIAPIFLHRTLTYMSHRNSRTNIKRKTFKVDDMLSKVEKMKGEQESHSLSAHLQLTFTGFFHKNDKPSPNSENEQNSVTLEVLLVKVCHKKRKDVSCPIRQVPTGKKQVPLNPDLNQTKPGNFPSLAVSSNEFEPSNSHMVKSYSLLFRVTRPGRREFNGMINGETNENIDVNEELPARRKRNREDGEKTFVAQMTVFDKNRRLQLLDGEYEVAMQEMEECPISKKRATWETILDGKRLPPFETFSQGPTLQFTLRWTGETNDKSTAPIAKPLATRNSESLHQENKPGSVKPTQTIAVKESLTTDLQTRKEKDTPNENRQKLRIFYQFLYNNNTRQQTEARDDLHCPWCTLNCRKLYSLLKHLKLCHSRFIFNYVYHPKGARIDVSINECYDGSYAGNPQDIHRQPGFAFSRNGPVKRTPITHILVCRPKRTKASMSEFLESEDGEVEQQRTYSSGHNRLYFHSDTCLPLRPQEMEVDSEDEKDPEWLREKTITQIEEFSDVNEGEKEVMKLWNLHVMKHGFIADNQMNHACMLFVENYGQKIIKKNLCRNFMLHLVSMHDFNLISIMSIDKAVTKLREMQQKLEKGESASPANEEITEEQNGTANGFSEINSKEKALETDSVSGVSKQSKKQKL
EZH2 (PRC2), sequence (Q09028 2-425 partner): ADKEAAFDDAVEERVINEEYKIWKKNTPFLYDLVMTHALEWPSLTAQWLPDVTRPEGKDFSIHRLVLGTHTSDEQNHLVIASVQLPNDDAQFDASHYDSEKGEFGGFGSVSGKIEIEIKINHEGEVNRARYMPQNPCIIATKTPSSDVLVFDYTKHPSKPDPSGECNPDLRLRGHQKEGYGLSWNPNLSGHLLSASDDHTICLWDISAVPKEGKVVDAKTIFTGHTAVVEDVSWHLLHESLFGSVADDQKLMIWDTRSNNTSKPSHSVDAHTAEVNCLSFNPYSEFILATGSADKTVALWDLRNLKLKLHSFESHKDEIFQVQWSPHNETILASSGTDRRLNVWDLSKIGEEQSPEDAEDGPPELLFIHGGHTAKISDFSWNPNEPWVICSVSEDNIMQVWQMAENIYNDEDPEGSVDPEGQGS

EZH2 Y646N (PRC2/EZH2^Y646N), sequence (Q15910 whole entry Y641N): as the sequence (Q15910 whole entry) above, with Y641N counted along it
EZH2 Y646N (PRC2/EZH2^Y646N), sequence (O75530 2-441 partner): as the sequence (O75530 2-441 partner) above
EZH2 Y646N (PRC2/EZH2^Y646N), sequence (Q15022 whole entry partner): as the sequence (Q15022 whole entry partner) above
EZH2 Y646N (PRC2/EZH2^Y646N), sequence (Q09028 2-425 partner): as the sequence (Q09028 2-425 partner) above

IC50 [1]: 891 ± 96 nM | IC50 [2]: 766 ± 710 nM
SMILES: COC(=O)c1ccc(NC(=O)c2ccc(NC(=O)c3ccc([N+](=O)[O-])c(OCc4ccccc4)n3)c(OCc3ccccc3)n2)c(OCCCN)n1 [ADH-61]

From publication PMC5935545 (Molecular cell, 2018)
